Test results as given in article PMC6009956, “Design, synthesis and biological activity of N^4-phenylsubstituted-7H-pyrrolo[2,3-d]pyrimidin-4-amines as dual inhibitors of aurora kinase A and epidermal growth factor receptor kinase” (Journal of Enzyme Inhibition and Medicinal Chemistry, 2017).
Like-named read-outs stand apart in the source and are kept apart here. One block for each compound: values may come before it.

Columns and labels:
[1] = target: T1, aurora A kinase (AURKA) (Homo sapiens, UniProt O14965); assay: ADP-Glo kinase assay, Aurora A; assay type: biochemical
T1 construct: purchased BPS Bioscience (assay run externally by the vendor)
T1 sequence (O14965 1-403): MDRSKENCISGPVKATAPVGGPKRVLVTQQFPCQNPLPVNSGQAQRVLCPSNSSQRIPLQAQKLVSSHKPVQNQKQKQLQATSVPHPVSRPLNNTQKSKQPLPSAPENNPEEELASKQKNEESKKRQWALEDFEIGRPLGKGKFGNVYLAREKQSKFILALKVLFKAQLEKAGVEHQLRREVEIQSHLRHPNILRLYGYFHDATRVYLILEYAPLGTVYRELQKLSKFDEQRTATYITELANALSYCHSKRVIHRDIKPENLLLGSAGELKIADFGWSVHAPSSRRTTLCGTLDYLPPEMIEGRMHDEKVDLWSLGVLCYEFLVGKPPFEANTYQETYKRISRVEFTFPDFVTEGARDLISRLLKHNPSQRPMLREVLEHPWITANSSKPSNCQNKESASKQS

[2] = target: EGFR (Homo sapiens, UniProt P00533); assay: ADP-Glo kinase assay, EGFR; assay type: biochemical; design: purchased BPS Bioscience (assay run externally by the vendor)
Sequence of EGFR (P00533 25-1210): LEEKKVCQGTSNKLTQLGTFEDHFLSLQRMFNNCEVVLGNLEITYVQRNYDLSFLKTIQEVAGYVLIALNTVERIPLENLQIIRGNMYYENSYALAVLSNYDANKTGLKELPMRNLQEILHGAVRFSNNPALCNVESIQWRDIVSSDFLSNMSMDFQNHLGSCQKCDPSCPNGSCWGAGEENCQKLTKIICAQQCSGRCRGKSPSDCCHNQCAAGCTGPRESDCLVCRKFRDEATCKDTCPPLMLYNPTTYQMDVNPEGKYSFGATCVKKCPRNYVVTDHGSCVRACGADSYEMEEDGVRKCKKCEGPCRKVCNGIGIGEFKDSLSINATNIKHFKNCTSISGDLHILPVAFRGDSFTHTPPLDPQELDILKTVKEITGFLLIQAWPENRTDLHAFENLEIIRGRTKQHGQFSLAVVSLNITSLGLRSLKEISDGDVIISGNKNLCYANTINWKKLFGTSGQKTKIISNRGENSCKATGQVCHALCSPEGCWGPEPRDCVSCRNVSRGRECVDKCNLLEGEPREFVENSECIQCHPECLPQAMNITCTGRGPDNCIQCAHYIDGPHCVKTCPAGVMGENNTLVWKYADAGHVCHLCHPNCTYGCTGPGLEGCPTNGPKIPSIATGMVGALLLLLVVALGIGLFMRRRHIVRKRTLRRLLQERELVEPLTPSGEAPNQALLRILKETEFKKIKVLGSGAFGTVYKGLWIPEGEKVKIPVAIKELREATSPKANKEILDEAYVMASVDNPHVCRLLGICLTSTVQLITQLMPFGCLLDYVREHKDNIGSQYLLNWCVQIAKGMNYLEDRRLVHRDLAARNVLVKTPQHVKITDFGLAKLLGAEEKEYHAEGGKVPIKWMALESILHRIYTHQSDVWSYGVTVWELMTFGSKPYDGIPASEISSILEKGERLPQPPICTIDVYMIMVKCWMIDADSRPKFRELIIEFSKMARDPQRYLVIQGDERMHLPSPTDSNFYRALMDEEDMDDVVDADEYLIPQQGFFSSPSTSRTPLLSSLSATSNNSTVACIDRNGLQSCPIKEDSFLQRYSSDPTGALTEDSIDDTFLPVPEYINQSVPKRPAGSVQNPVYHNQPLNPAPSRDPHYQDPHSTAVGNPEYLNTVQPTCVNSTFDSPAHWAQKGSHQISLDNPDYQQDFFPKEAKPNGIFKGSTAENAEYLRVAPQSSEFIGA

[3] = 10 µM ATP, triplicate, read-out: AURKA IC50 ± SD
[4] = 10 µM ATP/0.2 mg/ml Kemptide, read-out: Aurora A IC50 (dose-response curve, supplement)
[5] = 10 µM ATP, triplicate, read-out: EGFR IC50 ± SD
[6] = 10 µM ATP/0.2 mg/ml Poly-Glu-Tyr, read-out: EGFR IC50 (dose-response curve, supplement)

Structure (SMILES): CN[C@@H]1C[C@H]2O[C@@](C)([C@@H]1OC)n1c3ccccc3c3c4c(c5c6ccccc6n2c5c31)C(=O)NC4 [Staurosporine, staurosporine, reference compound]
Aurora A % Activity Set1 ([1]; Log[nM] 0): 109%
Aurora A % Activity Set2 ([1]; Log[nM] 0): 103%
Aurora A % Activity Set3 ([1]; Log[nM] 0): 109%
Aurora A % Activity Set1 ([1]; Log[nM] 1.0): 102%
Aurora A % Activity Set2 ([1]; Log[nM] 1.0): 101%
Aurora A % Activity Set3 ([1]; Log[nM] 1.0): 102%
Aurora A % Activity Set1 ([1]; Log[nM] 1.5): 73%
Aurora A % Activity Set2 ([1]; Log[nM] 1.5): 69%
Aurora A % Activity Set3 ([1]; Log[nM] 1.5): 85%
Aurora A % Activity Set2 ([1]; Log[nM] 2.0): 9%
Aurora A % Activity Set1 ([1]; Log[nM] -0.5): 98%
Aurora A % Activity Set2 ([1]; Log[nM] -0.5): 100%
Aurora A % Activity Set3 ([1]; Log[nM] -0.5): 102%
Aurora A % Activity Set1 ([1]; Log[nM] -1.0): 100%
Aurora A % Activity Set2 ([1]; Log[nM] -1.0): 93%
Aurora A % Activity Set3 ([1]; Log[nM] -1.0): 102%

IC50 [1, 3]: 3.43 ± 0.12 µM
IC50 [1, 4]: 3.4 µM
Aurora A % Activity Set1 ([1]; Log[nM] 0): 101%
Aurora A % Activity Set2 ([1]; Log[nM] 0): 105%
Aurora A % Activity Set3 ([1]; Log[nM] 0): 95%
Aurora A % Activity Set1 ([1]; Log[nM] 1.0): 100%
Aurora A % Activity Set2 ([1]; Log[nM] 1.0): 102%
Aurora A % Activity Set3 ([1]; Log[nM] 1.0): 97%
Aurora A % Activity Set1 ([1]; Log[nM] 1.5): 97%
Aurora A % Activity Set2 ([1]; Log[nM] 1.5): 100%
Aurora A % Activity Set3 ([1]; Log[nM] 1.5): 97%
Aurora A % Activity Set1 ([1]; Log[nM] 2.0): 96%
Aurora A % Activity Set2 ([1]; Log[nM] 2.0): 101%
Aurora A % Activity Set3 ([1]; Log[nM] 2.0): 105%
Aurora A % Activity Set1 ([1]; Log[nM] 2.5): 89%
Aurora A % Activity Set2 ([1]; Log[nM] 2.5): 95%
Aurora A % Activity Set3 ([1]; Log[nM] 2.5): 95%
Aurora A % Activity Set1 ([1]; Log[nM] 3.0): 89%
Aurora A % Activity Set2 ([1]; Log[nM] 3.0): 91%
Aurora A % Activity Set3 ([1]; Log[nM] 3.0): 92%
Aurora A % Activity Set1 ([1]; Log[nM] 3.5): 48%
Aurora A % Activity Set2 ([1]; Log[nM] 3.5): 50%
Aurora A % Activity Set3 ([1]; Log[nM] 3.5): 53%
Aurora A % Activity Set1 ([1]; Log[nM] 4.0): 17%
Aurora A % Activity Set2 ([1]; Log[nM] 4.0): 17%
Aurora A % Activity Set3 ([1]; Log[nM] 4.0): 17%
Aurora A % Activity Set1 ([1]; Log[nM] 4.5): 7%
Aurora A % Activity Set2 ([1]; Log[nM] 4.5): 8%
Aurora A % Activity Set3 ([1]; Log[nM] 4.5): 8%
Aurora A % Activity Set1 ([1]; Log[nM] 5.0): 4%
Aurora A % Activity Set2 ([1]; Log[nM] 5.0): 4%
Aurora A % Activity Set3 ([1]; Log[nM] 5.0): 3%
IC50 [2, 5]: 0.02 ± 0.0036 µM
IC50 [2, 6]: 0.0199 µM
EGFR % Activity Set1 ([2]; Log[nM] 0): 77%
EGFR % Activity Set2 ([2]; Log[nM] 0): 88%
EGFR % Activity Set3 ([2]; Log[nM] 0): 76%
EGFR % Activity Set1 ([2]; Log[nM] 1.0): 69%
EGFR % Activity Set2 ([2]; Log[nM] 1.0): 75%
EGFR % Activity Set3 ([2]; Log[nM] 1.0): 66%
EGFR % Activity Set1 ([2]; Log[nM] 1.5): 34%
EGFR % Activity Set2 ([2]; Log[nM] 1.5): 39%
EGFR % Activity Set3 ([2]; Log[nM] 1.5): 33%
EGFR % Activity Set1 ([2]; Log[nM] 2.0): 19%
EGFR % Activity Set2 ([2]; Log[nM] 2.0): 19%
EGFR % Activity Set3 ([2]; Log[nM] 2.0): 16%
EGFR % Activity Set1 ([2]; Log[nM] 2.5): 10%
EGFR % Activity Set2 ([2]; Log[nM] 2.5): 9%
EGFR % Activity Set3 ([2]; Log[nM] 2.5): 8%
EGFR % Activity Set1 ([2]; Log[nM] 3.0): 5%
EGFR % Activity Set2 ([2]; Log[nM] 3.0): 5%
EGFR % Activity Set3 ([2]; Log[nM] 3.0): 5%
EGFR % Activity Set1 ([2]; Log[nM] 3.5): 2%
EGFR % Activity Set2 ([2]; Log[nM] 3.5): 9%
EGFR % Activity Set3 ([2]; Log[nM] 3.5): 2%
EGFR % Activity Set1 ([2]; Log[nM] 4.0): 1%
EGFR % Activity Set2 ([2]; Log[nM] 4.0): 1%
EGFR % Activity Set3 ([2]; Log[nM] 4.0): 1%
EGFR % Activity Set1 ([2]; Log[nM] 4.5): 0%
EGFR % Activity Set2 ([2]; Log[nM] 4.5): 0%
EGFR % Activity Set3 ([2]; Log[nM] 4.5): 0%
EGFR % Activity Set1 ([2]; Log[nM] 5.0): 0%
EGFR % Activity Set2 ([2]; Log[nM] 5.0): 0%
EGFR % Activity Set3 ([2]; Log[nM] 5.0): 0%
Structure (SMILES): Cc1cccc(Nc2ncnc3[nH]ccc23)c1 [Compound 12, N^4-(3-methylaniline)-7H-pyrrolo[2,3-d]pyrimidin-4-amine]

IC50 [1, 3]: 5.66 ± 0.43 µM
IC50 [1, 4]: 5.7 µM
Aurora A % Activity Set1 ([1]; Log[nM] 0): 97%
Aurora A % Activity Set2 ([1]; Log[nM] 0): 92%
Aurora A % Activity Set3 ([1]; Log[nM] 0): 94%
Aurora A % Activity Set1 ([1]; Log[nM] 1.0): 102%
Aurora A % Activity Set2 ([1]; Log[nM] 1.0): 97%
Aurora A % Activity Set3 ([1]; Log[nM] 1.0): 98%
Aurora A % Activity Set1 ([1]; Log[nM] 1.5): 111%
Aurora A % Activity Set2 ([1]; Log[nM] 1.5): 96%
Aurora A % Activity Set3 ([1]; Log[nM] 1.5): 98%
Aurora A % Activity Set1 ([1]; Log[nM] 2.0): 103%
Aurora A % Activity Set2 ([1]; Log[nM] 2.0): 98%
Aurora A % Activity Set3 ([1]; Log[nM] 2.0): 102%
Aurora A % Activity Set1 ([1]; Log[nM] 2.5): 101%
Aurora A % Activity Set2 ([1]; Log[nM] 2.5): 106%
Aurora A % Activity Set3 ([1]; Log[nM] 2.5): 101%
Aurora A % Activity Set1 ([1]; Log[nM] 3.0): 87%
Aurora A % Activity Set2 ([1]; Log[nM] 3.0): 86%
Aurora A % Activity Set3 ([1]; Log[nM] 3.0): 93%
Aurora A % Activity Set1 ([1]; Log[nM] 3.5): 73%
Aurora A % Activity Set2 ([1]; Log[nM] 3.5): 68%
Aurora A % Activity Set3 ([1]; Log[nM] 3.5): 73%
Aurora A % Activity Set1 ([1]; Log[nM] 4.0): 28%
Aurora A % Activity Set2 ([1]; Log[nM] 4.0): 25%
Aurora A % Activity Set3 ([1]; Log[nM] 4.0): 27%
Aurora A % Activity Set1 ([1]; Log[nM] 4.5): 14%
Aurora A % Activity Set2 ([1]; Log[nM] 4.5): 13%
Aurora A % Activity Set3 ([1]; Log[nM] 4.5): 14%
Aurora A % Activity Set1 ([1]; Log[nM] 5.0): 13%
Aurora A % Activity Set2 ([1]; Log[nM] 5.0): 11%
Aurora A % Activity Set3 ([1]; Log[nM] 5.0): 14%
IC50 [2, 5]: 0.471 ± 0.114 µM
IC50 [2, 6]: 0.471 µM
EGFR % Activity Set1 ([2]; Log[nM] 0): 100%
EGFR % Activity Set2 ([2]; Log[nM] 0): 95%
EGFR % Activity Set3 ([2]; Log[nM] 0): 94%
EGFR % Activity Set1 ([2]; Log[nM] 1.0): 105%
EGFR % Activity Set2 ([2]; Log[nM] 1.0): 90%
EGFR % Activity Set3 ([2]; Log[nM] 1.0): 96%
EGFR % Activity Set1 ([2]; Log[nM] 1.5): 108%
EGFR % Activity Set2 ([2]; Log[nM] 1.5): 83%
EGFR % Activity Set3 ([2]; Log[nM] 1.5): 93%
EGFR % Activity Set1 ([2]; Log[nM] 2.0): 89%
EGFR % Activity Set2 ([2]; Log[nM] 2.0): 75%
EGFR % Activity Set3 ([2]; Log[nM] 2.0): 84%
EGFR % Activity Set1 ([2]; Log[nM] 2.5): 62%
EGFR % Activity Set2 ([2]; Log[nM] 2.5): 53%
EGFR % Activity Set3 ([2]; Log[nM] 2.5): 57%
EGFR % Activity Set1 ([2]; Log[nM] 3.0): 36%
EGFR % Activity Set2 ([2]; Log[nM] 3.0): 27%
EGFR % Activity Set3 ([2]; Log[nM] 3.0): 33%
EGFR % Activity Set1 ([2]; Log[nM] 3.5): 16%
EGFR % Activity Set2 ([2]; Log[nM] 3.5): 14%
EGFR % Activity Set3 ([2]; Log[nM] 3.5): 16%
EGFR % Activity Set1 ([2]; Log[nM] 4.0): 8%
EGFR % Activity Set2 ([2]; Log[nM] 4.0): 6%
EGFR % Activity Set3 ([2]; Log[nM] 4.0): 7%
EGFR % Activity Set1 ([2]; Log[nM] 4.5): 4%
EGFR % Activity Set2 ([2]; Log[nM] 4.5): 3%
EGFR % Activity Set3 ([2]; Log[nM] 4.5): 3%
EGFR % Activity Set1 ([2]; Log[nM] 5.0): 5%
EGFR % Activity Set2 ([2]; Log[nM] 5.0): 4%
EGFR % Activity Set3 ([2]; Log[nM] 5.0): 4%
Structure (SMILES): Clc1ccccc1Nc1ncnc2[nH]ccc12 [Compound 14, N^4-(2-chlorophenyl)-7H-pyrrolo[2,3-d]pyrimidin-4-amine]
